The target of experiment [1] is Integrin alpha-IIb/beta-3 (Homo sapiens, UniProt P05106+P08514). The experiment is described as follows: Inhibition of alpha IIb beta-3 integrin binding to fibrinogen. Format: protein-complex assay.
The target in another experiment is Integrin alpha-V/beta-3 (Homo sapiens, UniProt P05106+P06756). The experiment is described as follows: Inhibition of Vitronectin receptor (alpha V beta 3) binding to vitronectin.

As usually defined, the IC50 is the concentration that inhibits the measured activity by half. The low end stands for inhibition by little substance, the high end for a need for much substance.

Each structure is given as a SMILES string.

Sequence of Integrin alpha-IIb/beta-3 (P05106 27-788 limits assumed): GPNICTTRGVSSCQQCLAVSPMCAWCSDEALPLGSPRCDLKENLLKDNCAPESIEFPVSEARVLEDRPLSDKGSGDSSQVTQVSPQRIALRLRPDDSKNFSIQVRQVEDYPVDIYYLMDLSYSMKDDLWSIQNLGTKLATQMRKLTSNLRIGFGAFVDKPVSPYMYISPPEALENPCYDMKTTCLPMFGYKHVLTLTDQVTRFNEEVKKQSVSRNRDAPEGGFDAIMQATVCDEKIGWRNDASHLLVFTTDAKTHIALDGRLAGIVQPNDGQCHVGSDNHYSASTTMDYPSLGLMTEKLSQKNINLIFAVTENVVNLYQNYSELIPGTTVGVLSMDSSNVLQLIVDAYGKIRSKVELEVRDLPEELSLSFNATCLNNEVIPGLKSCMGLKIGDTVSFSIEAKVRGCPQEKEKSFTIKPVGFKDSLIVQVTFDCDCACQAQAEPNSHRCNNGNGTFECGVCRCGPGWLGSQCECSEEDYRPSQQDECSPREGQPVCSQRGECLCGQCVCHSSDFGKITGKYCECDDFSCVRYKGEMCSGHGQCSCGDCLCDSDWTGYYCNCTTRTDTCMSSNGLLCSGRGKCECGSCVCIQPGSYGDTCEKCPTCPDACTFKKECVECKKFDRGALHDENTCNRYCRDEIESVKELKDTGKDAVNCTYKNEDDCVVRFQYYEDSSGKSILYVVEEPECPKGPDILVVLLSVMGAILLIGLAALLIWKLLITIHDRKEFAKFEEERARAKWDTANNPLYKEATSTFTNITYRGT
Sequence of Integrin alpha-IIb/beta-3 (P08514 32-887 limits assumed): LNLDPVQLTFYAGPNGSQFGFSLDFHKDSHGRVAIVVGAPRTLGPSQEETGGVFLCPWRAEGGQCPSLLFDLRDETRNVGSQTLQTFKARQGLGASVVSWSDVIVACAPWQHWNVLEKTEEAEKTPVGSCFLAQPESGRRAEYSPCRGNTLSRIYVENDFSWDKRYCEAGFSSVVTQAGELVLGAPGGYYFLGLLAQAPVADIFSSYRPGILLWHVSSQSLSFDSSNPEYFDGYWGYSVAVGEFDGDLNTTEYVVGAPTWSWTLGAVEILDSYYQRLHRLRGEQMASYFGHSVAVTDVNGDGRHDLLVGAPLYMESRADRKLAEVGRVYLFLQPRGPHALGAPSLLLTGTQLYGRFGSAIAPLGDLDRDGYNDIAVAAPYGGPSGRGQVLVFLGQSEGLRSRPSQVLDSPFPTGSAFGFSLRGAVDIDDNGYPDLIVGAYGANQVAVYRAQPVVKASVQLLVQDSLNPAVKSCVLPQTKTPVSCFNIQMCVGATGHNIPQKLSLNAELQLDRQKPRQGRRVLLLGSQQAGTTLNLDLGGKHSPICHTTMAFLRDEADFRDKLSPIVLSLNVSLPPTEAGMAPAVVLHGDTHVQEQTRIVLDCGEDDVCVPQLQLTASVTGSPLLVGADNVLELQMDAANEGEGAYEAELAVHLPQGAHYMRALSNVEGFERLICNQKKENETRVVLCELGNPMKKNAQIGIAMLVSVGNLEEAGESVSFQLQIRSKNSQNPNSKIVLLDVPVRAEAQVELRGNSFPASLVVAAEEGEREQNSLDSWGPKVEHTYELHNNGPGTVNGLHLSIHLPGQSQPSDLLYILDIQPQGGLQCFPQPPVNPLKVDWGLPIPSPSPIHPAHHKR
Sequence of Integrin alpha-IIb/beta-3 (P08514 891-1039 limits assumed): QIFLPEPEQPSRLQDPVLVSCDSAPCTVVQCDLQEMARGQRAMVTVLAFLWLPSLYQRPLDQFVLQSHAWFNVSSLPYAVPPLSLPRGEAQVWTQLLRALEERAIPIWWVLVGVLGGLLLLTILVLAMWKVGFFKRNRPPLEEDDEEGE
Sequence of Integrin alpha-V/beta-3 (P05106 27-788 limits assumed): as the sequence (P05106 27-788 limits assumed) above
Sequence of Integrin alpha-V/beta-3 (P06756 31-889 limits assumed): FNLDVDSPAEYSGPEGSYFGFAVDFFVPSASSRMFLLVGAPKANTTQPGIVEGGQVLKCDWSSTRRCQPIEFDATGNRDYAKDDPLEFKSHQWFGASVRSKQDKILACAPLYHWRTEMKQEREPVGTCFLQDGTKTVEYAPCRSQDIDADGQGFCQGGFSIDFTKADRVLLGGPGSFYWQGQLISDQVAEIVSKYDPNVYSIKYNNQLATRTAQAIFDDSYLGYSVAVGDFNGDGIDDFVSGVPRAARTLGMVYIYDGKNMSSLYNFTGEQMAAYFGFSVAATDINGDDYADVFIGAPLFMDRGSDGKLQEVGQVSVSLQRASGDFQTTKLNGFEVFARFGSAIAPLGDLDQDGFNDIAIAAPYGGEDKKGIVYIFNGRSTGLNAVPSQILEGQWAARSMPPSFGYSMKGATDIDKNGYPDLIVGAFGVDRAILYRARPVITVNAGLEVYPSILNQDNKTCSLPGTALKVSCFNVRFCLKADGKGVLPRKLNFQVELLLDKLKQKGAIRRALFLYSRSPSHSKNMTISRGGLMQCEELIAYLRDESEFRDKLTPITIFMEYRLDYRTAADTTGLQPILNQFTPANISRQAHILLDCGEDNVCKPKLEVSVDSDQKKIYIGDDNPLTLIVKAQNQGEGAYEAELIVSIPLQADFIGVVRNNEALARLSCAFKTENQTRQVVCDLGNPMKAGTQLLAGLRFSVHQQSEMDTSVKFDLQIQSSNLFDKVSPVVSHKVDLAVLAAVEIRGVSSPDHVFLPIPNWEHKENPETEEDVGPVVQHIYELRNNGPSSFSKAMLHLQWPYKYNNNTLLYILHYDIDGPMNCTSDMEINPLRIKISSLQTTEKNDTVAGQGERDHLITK
Sequence of Integrin alpha-V/beta-3 (P06756 891-1048 limits assumed): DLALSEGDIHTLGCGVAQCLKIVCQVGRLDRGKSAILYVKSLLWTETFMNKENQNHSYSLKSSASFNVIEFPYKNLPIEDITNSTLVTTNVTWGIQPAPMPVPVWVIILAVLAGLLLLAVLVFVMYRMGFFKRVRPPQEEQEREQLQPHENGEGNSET

Take `NCCCC[C@H](NC(=O)[C@@H]1CCCN1C(=O)[C@H](CO)NC(=O)[C@H](CC(=O)O)NC(=O)CNC(=O)[C@H](CCCN=C(N)N)NC(=O)CN)C(=O)O`: the IC50 in experiment [1] amounted to 1700 nM; at Integrin alpha-V/beta-3 it was 210 nM.
